{
  "source": "patent US11338012B2",
  "about": "“BRAF-based polypeptides for treatment of cancer” (UNIVERSITY OF THE SCIENCES, priority 2019, dated 2022)",
  "key": {"[1]": {"tested_on": "MAPK signaling in HEK293 cells overexpressing wild-type BRAF or BRAF^G469A", "test": "Cell-based synergy assay of TAT-braftide with ATP-competitive inhibitors in HEK293 cells overexpressing BRAF^WT or BRAF^G469A", "protocol": "IC50 values were obtained from a dose-response curve (4-parameter logistic equation) in Origin, from three independent experiments. […] Western blots are representative of at least three independent experiments.\nCell lysates were subjected to immunoblotting for the indicated proteins.\nHEK293 cells were plated at one million cells per 2 mL :DMEM supplemented with 10% FBS and 1% L-glutarnine. These cells were incubated at 37° C. with 5% CO2 for 24 hours or until the cells reach a confluency of 40-60%. DNA (1-3 μg) was mixed with PEI-MAX in a 1:3 ratio in Opti-MEM at RT for ˜25 minutes and added onto the cells with fresh media. After 48 hrs, the cells were washed with cold PBS, harvested, lysed with 4% SDS and homogenized. […] The cells were then washed twice with PBS, lysed as above and quantified with the BCA protein assay. Equal amounts of cell lysates were loaded for immunoblotting and then probed for relevant proteins. […] Cells were washed twice with PBS and processed as above. Protein concentrations were determined with BCA assays for immunoblotting.\nThe efficacy of current ATP-competitive BRAF inhibitors is limited to BRAF^V600E that signals as a monomer."}, "[2]": {"tested_on": "BRAF^WT/G469A kinase activity in HEK293 cells", "test": "Immunoblotting of HEK293 cells transiently transfected with BRAF^WT/G469A (pMEK, BRAF, MEK levels)", "assay_type": "cell-based", "conditions": "0-100 μM, 4 hrs", "protocol": "FIGS. 2A-2C illustrate TAT-tagged Braftide inhibits BRAF^WT/G469A kinase activity in HEK293 cells. HEK293 cells transiently transfected with BRAF^WT/G469A were treated with TAT-braftide or TAT peptide at the indicated concentrations (0, 10, 25, 50, 75, and 100 μM) for 4 hrs. Cell lysates were subjected to immunoblotting with the indicated antibodies: anti-BRAF, anti-pMEK, and anti-Actin. FIG. 2A illustrates effect of TAT-braftide on BRAF^WT/G469A kinase activity in HEK293 cells. FIG. 2B illustrates effect of TAT control peptide on BRAF^WT/G469A kinase activity in HEK293 cells. Western blots are representative of at least three independent experiments. The band intensities from the Western Blots were quantified in ImageJ. FIG. 2C illustrates confocal microscopy images of HEK293 cells treated with 25 μM braftide-Cy3 for 2 hr and stained with FLAG antibody for BRAF.\nHEK293 cells were plated at one million cells per 2 mL :DMEM supplemented with 10% FBS and 1% L-glutarnine. These cells were incubated at 37° C. with 5% CO2 for 24 hours or until the cells reach a confluency of 40-60%. DNA (1-3 μg) was mixed with PEI-MAX in a 1:3 ratio in Opti-MEM at RT for ˜25 minutes and added onto the cells with fresh media. After 48 hrs, the cells were washed with cold PBS, harvested, lysed with 4% SDS and homogenized. For peptide assays, 48 hrs post-transfection, cells were treated with TAT-Braftide/TAT control in reduced serum media at the indicated concentrations for 4 hrs. The cells were then washed twice with PBS, lysed as above and quantified with the BCA protein assay. Equal amounts of cell lysates were loaded for immunoblotting and then probed for relevant proteins. […] Protein concentrations were determined with BCA assays for immunoblotting.\nBraftide was conjugated with the TAT sequence ([…]; SEQ ID NO:2), a cell-penetrating peptide widely used in peptide drugs. […] The activity of BRAF was quantified by probing for phospho-MEK1/2. […] A Cy3-tagged version of braftide was synthesized and evaluated for its ability of crossing the plasma membrane using immunofluorescence experiments. […]"}, "BRAF^WT in HEK293 cells": {"target": "T1, BRAF^WT in HEK293 cells (Homo sapiens, UniProt P15056)", "T1 construct": "expressed in transfected cells; host or cells: HEK293", "test": "BRAF degradation: bortezomib rescue and cycloheximide half-life in HEK293 cells", "assay_type": "cell-based", "conditions": "pre-treated with 0.4 μM Bortezomib 5 hr, then 75 and 100 μM peptide 4 hr", "protocol": "FIG. 3B illustrates quantification of BRAF protein levels after rescue with Bortezomib. […] FIG. 3D illustrates quantification of the Western Blot to determine the half-life (t,1/2) of BRAF. Western blots are representative of at least three independent experiments.\nHEK293 cells transiently transfected with wild-type BRAF were treated with cycloheximide."}, "p61 BRAF^V600E": {"target": "T2, p61 BRAF^V600E (Homo sapiens, UniProt P15056, DEL169-380/V600E)", "T2 construct": "expressed in transfected cells; host or cells: HEK293", "T2 sequence (P15056 with tags, fused parts or gaps DEL169-380/V600E)": "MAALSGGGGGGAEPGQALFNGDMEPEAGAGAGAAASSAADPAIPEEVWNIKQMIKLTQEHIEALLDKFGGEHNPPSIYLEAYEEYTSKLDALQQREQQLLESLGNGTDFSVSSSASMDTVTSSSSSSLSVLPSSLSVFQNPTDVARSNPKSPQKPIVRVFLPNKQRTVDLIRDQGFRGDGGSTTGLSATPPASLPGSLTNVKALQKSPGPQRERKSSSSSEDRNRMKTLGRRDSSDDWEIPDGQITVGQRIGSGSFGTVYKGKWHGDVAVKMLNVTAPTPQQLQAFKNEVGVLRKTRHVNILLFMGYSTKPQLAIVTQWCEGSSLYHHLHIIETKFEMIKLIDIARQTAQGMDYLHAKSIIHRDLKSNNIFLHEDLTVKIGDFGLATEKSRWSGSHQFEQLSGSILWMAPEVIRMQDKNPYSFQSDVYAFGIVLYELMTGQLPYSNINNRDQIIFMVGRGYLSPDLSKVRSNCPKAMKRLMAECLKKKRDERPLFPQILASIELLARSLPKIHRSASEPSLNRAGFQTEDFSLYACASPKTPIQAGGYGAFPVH", "test": "Immunoblotting of HEK293 cells transfected with p61-BRAF^V600E", "assay_type": "cell-based", "conditions": "increasing concentrations, 4 hr"}, "[3]": {"tested_on": "MAPK pathway in the HCT116 cell line", "test": "MAPK pathway inhibition in HCT116 cells (immunoblotting)", "assay_type": "cell-based", "conditions": "0-75 μM, 4 hr; read-out: IC50 of MAPK pathway inhibition (phospho-MEK, phospho-ERK, degradation of endogenous BRAF and MEK)", "protocol": "(§1) Western blots are representative of at least three independent experiments. […] Cell viability was determined through the WST assay according to manufacturer's instructions. IC50 values were obtained from a dose-response curve (4-parameter logistic equation) in Origin, from three independent experiments."}, "HCT116 cells": {"tested_on": "HCT116 cells", "test": "WST cell viability assay, HCT116", "assay_type": "cell-based", "conditions": "48 hr", "protocol": "as §1\n(§2) Cells were seeded onto poly-lysine coated, clear-bottomed, 96-well plates at 15000 cells per well. […] Upon 48 hr treatment, cell viability was determined through the WST cell viability assay. According to manufacturers' instructions, 10 μL of the WST reagent was added to each well and incubated at 37° C. for 4 hrs. Absorbance readings for the plate were then taken at 450 nm in a Biotek plate reader."}, "HCT-15 cells": {"tested_on": "HCT-15 cells", "test": "WST cell viability assay, HCT-15", "assay_type": "cell-based", "conditions": "48 hr", "protocol": "as §1, §2"}, "[4]": {"conditions": "dabrafenib alone, wild-type BRAF, 1 hr"}},
  "note": "Where no end group is shown, it is not given here.",
  "data": [
    {"compound": "CC(C)(C)c1nc(-c2cccc(NS(=O)(=O)c3c(F)cccc3F)c2F)c(-c2ccnc(N)n2)s1", "note": "[dabrafenib, N-{3-[5-(2-aminopyrimidin-4-yl)-2-tert-butyl-1,3-thiazol-4-yl]-2-fluorophenyl}-2,6-difluorobenzenesulfonamide]", "values": [
      {"measurement": "concentration at which dabrafenib performed as an inhibitor", "setting": "[1]; [4]", "result": "above 10 μM"},
      {"measurement": "effect on MAPK signaling at lower concentrations", "setting": "[1]; [4]", "result": "activated the MAPK signaling at lower concentrations"}
    ]},
    {"compound": "CCCS(=O)(=O)Nc1ccc(F)c(C(=O)c2c[nH]c3ncc(-c4ccc(Cl)cc4)cc23)c1F", "note": "[vemurafenib, N-(3-{[5-(4-Chlorophenyl)-1H-pyrrolo[2,3-b]pyridin-3-yl]carbonyl}-2,4-difluorophenyl)propane-1-sulfonamide]", "values": [
      {"measurement": "synergy with braftide", "setting": "[1]; braftide 75 μM 2 hr, then vemurafenib 1 hr", "result": "same synergy effect between vemurafenib and braftide was validated"}
    ]},
    {"compound": "Braftide conjugated with the TAT sequence (GRKKRRQRRRPQ; SEQ ID NO:2), a cell-penetrating peptide (GRKKRRQRRRPQTRHVNILLFM; also: possible unspecified modification flagged (lipid/PEG, unknown token)) [TAT-braftide]", "values": [
      {"measurement": "activity of BRAF (phospho-MEK1/2)", "setting": "[2]", "result": "significantly reduced the activity of BRAF in a dose-dependent manner"},
      {"measurement": "protein levels of overexpressed BRAF and endogenous MEK1", "setting": "[2]", "result": "markedly decreased in a dose-dependent manner"},
      {"measurement": "kinase activity of BRAF after proteasome inhibition", "setting": "BRAF^WT in HEK293 cells", "result": "still successfully inhibited the kinase activity of BRAF"},
      {"measurement": "pMEK and pERK levels", "setting": "p61 BRAF^V600E", "result": "A decrease in both pMEK and pERK levels was observed"},
      {"measurement": "protein level of p61", "setting": "p61 BRAF^V600E", "result": "not affected as dramatically as wild-type BRAF"},
      {"measurement": "IC50", "setting": "[3]", "result": "< 10", "unit": "µM"},
      {"measurement": "EC50", "setting": "HCT116 cells; WST assay, read-out: EC50 of inhibition of cell growth, HCT116", "result": 5, "unit": "µM"},
      {"measurement": "EC50", "setting": "HCT-15 cells; WST assay, read-out: EC50 of inhibition of cell growth, HCT-15", "result": 9, "unit": "µM"}
    ]},
    {"compound": "GRKKRRQRRRPQ [TAT peptide, cell-penetrating peptide used as the negative control, reference compound]", "values": [
      {"measurement": "activity of BRAF (phospho-MEK1/2)", "setting": "[2]", "result": "no inhibition effect was observed"},
      {"measurement": "cell death, HCT116", "setting": "HCT116 cells; at concentrations up to 100 μM", "result": "no cell death was observed"},
      {"measurement": "cell death, HCT-15", "setting": "HCT-15 cells; at concentrations up to 100 μM", "result": "no cell death was observed"}
    ]}
  ]
}
